In BindingDB's records for doi:10.1021/acs.jmedchem.8b00642 (Korea Institute of Science and Technology, 2018):

Target: 5-hydroxytryptamine receptor 7 (Homo sapiens, UniProt P34969)
Test: Displacement of [3H]LSD from human 5-HT7 receptor expressed in HEK cell membranes after 1.5 hrs by microbeta scintillation counting method

Chain of 5-hydroxytryptamine receptor 7 (P34969 whole entry): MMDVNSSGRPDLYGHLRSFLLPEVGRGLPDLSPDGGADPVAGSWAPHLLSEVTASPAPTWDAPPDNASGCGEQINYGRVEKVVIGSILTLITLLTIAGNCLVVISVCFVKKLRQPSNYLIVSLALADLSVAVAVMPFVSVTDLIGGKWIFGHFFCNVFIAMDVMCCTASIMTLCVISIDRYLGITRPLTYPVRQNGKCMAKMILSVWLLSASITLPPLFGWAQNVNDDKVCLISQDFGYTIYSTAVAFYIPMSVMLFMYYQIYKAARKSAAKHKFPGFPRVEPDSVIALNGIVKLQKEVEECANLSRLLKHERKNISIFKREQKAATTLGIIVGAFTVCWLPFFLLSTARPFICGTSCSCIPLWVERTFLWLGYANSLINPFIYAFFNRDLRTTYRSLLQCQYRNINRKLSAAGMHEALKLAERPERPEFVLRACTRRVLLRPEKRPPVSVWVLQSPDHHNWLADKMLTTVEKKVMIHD

SMILES: Clc1ccc(-c2n[nH]c3c2CCNCC3)cc1
- Ki: 32 nM
